Patent US4230708A (priority 1977, dated 1980)
≈ marks a conversion by molar mass, not a printed value. Like-named read-outs stand apart in the source and are kept apart here.

Tests used:
[1] = test system: VSV, vaccinia and herpes simplex-1 (KOS); assay type: cell-based, vaccinia and herpes simplex-1 (KOS) viruses; settings: for Antiviral activity of congeners: at 100 μg/ml (the highest level tested), PRK cells; for Antiviral activity of enantiomers and racemate: VSV/PRK, vaccinia/PRK, herpes simplex-1 (KOS)/PRK
[2] = target: adenosine deaminase (Bos taurus, UniProt P56658); assay: Deamination of ara-A by adenosine deaminase of calf intestinal mucosa (FIG. 3, FIG. 4); assay type: biochemical; settings: for Decrease in absorbance at 265 nm (extent of deamination): FIG. 3A
Protocol: FIG. 3 is a graphical representation showing the inhibitory effect of (S)-DHPA on deamination of ara-A by adenosine deaminase of calf intestinal mucosa. Deamination of ara-A was measured according to the method of Kalckar (compare J. Biol. Chem., 167, 461, […]), modified by Trams and Lauter (compare Biochem. J., 152, 681, 1975). The extent of deamination is equivalent to the decrease of absorbance at λ (wavelength)=265 nm. The decrease in absorbance at 265 nm was 0.11 if 50 nmol of ara-A were used, and was 0.16 if 100 nmol of ara-A were used (FIG. 3A).

[3] = test system: vaccinia virus; assay type: cell-based; settings: for Virus yield: (S)-DHPA 30 μg/ml, ara-A 3 μg/ml, or both
[4] = test system: DNA viruses; RNA viruses; settings: known from literature; cited from earlier work
[5] = cited from earlier work
[6] = test system: vesicular stomatitis virus; assay type: in vivo, NMRI mice; settings: for Final number of surviving mice: control 37.5%
[7] = Acute toxicity in mice; assay type: in vivo
[8] = test system: vesicular stomatitis virus; assay: microbe, parasite or virus in culture; assay type: cell-based; settings: HSF, read-out: Decrease of virus titer compared with control
[9] = test system: Vesicular stomatitis; assay: microbe, parasite or virus in culture; assay type: cell-based; settings: read-out: ID50
[10] = test system: Vaccinia; assay: microbe, parasite or virus in culture; assay type: cell-based; settings: Orthopoxvirus vaccinia, read-out: ID50
[11] = test system: Measles; assay: microbe, parasite or virus in culture; assay type: cell-based; settings: Measles morbillivirus, Vero; read-out: ID50 (the source's name)
[12] = test system: Sindbis; assay: microbe, parasite or virus in culture; assay type: cell-based; settings: BHK, read-out: ID50 (the source's name)
[13] = test system: Coxsackie B-4; assay type: cell-based, Coxsackie B-4 virus; settings: HeLa cells; 100 CCID50; read-out: ID50 (the source's name)
Protocol: The antiviral activity of (S)-DHPA was explored in a variety of cell cultures and with a variety of DNA and RNA viruses such as listed in Table 1. The cells of each cell culture were inoculated with a certain virus in a dose of about 100 CCID50, that is about 100 times the dose needed to infect 50% of the cells. One hour after inoculation, (S)-DHPA was added in varying doses from zero to 40 μg/ml and sometimes to more than 200 μg/ml. For each virus-cell system, the ID50 of (S)-DHPA, that is the dose of (S)-DHPA needed to suppress the cytopathic effect of the virus by 50%, was determined. This cytopathic effect (CPE) was measured in the untreated virus-infected cell cultures [(S)-DHPA dose 0] and recorded as soon as it reached completion (according to the method described by L. J. Rosenthal and I. L. Shechmaister, in "Tissue Culture", page 510, Academic Press, New York, 1973).

[14] = test system: Polio-1; assay: microbe, parasite or virus in culture; assay type: cell-based, polio virus type 1; settings: read-out: ID50
[15] = Stability; assay type: physicochemical
[16] = 1 day after infection, control 3.6
[17] = 2 days after infection, control 5.0
[18] = 3 days after infection, control 5.3
[19] = repeated doses of 0.4 mg/mouse (about 27 mg/kg)

Chain of adenosine deaminase (P56658 whole entry): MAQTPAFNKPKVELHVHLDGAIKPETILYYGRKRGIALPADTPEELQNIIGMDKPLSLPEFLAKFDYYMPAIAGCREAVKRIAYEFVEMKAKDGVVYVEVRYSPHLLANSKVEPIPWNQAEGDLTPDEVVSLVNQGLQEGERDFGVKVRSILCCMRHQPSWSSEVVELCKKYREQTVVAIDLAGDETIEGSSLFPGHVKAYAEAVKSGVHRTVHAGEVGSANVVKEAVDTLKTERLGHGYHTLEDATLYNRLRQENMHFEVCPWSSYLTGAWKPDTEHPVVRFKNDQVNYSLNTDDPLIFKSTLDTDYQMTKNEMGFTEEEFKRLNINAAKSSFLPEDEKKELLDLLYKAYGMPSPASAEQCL

SMILES: CC(O)Cn1cnc2c(N)ncnc21 (racemic) [RS-9-(2-hydroxypropyl)adenine]
- Antiviral activity of congeners [1]: did not demonstrate an antiviral activity

SMILES: Nc1ncnc2c1ncn2CCCO [9-(3-hydroxypropyl)adenine]
- Antiviral activity of congeners [1]: did not demonstrate an antiviral activity

SMILES: Nc1ncnc2c1ncn2[C@@H]1O[C@H](CO)[C@@H](O)[C@@H]1O [ara-A, 9-(beta-D-arabinofuranosyl)-adenine, reference compound]
- Decrease in absorbance at 265 nm (extent of deamination) ([2]; 50 nmol of ara-A): 0.11
- Decrease in absorbance at 265 nm (extent of deamination) ([2]; 100 nmol of ara-A): 0.16
- Virus yield [3, 16]: 2.1 log10 PFU/ml
- Virus yield [3, 17]: 4.0 log10 PFU/ml
- Virus yield [3, 18]: 5.0 log10 PFU/ml
- Antiviral activity [4]: marked antiviral activity but only for some DNA viruses

SMILES: Nc1ncnc2c1ncn2CCC(O)CCO (racemic) [RS-9-(3,5-dihydroxypentyl)adenine]
- Antiviral activity of congeners [1]: did not demonstrate an antiviral activity

SMILES: NC(=O)c1ncn([C@@H]2O[C@H](CO)[C@@H](O)[C@H]2O)n1 [ribavirin, (1-beta-D-ribofuranosyl)-1,2,4-triazole-3-carboxamide]
- Safety margin ([5]; known from literature): rather narrow safety margin
- Toxicity ([5]; known): high toxicity
- Antiviral activity [4]: broad-spectrum antiviral activity

SMILES: Cc1cn(C[C@@H](O)CO)c(=O)[nH]c1=O [R-1-(2,3-dihydroxypropyl)-thymine]
- Antiviral activity of congeners [1]: did not demonstrate an antiviral activity

SMILES: Nc1ncnc2c1ncn2CCC(O)CO (racemic) [RS-9-(3,4-dihydroxybutyl)-adenine]
- Antiviral activity of congeners [1]: did not demonstrate an antiviral activity

SMILES: O=c1ccn(C[C@H](O)CO)c(=O)[nH]1 [S-1-(2,3-dihydroxypropyl)uracil]
- Antiviral activity of congeners [1]: did not demonstrate an antiviral activity

SMILES: Nc1ncnc2c1ncn2CC[C@H](O)CO [S-9-(3,4-dihydroxybutyl)adenine]
- Antiviral activity of congeners [1]: did not demonstrate an antiviral activity

SMILES: Nc1ncnc2c1ncn2CCO [9-(2-hydroxyethyl)adenine]
- Antiviral activity of congeners [1]: did not demonstrate an antiviral activity

SMILES: Nc1ncnc2c1ncn2CC(N)C(=O)O (racemic) [9-(β-DL-alanyl)-adenine]
- Antiviral activity of congeners [1]: did not demonstrate an antiviral activity

SMILES: Nc1ncnc2c1ncn2C[C@H](O)[C@@H](O)CO (relative stereo) [RS-threo-9-(2,3,4-trihydroxybutyl)adenine]
- Antiviral activity of congeners [1]: did not demonstrate an antiviral activity

SMILES: Cc1cn(C[C@H](O)CO)c(=O)[nH]c1=O [S-1-(2,3-dihydroxypropyl)thymine]
- Antiviral activity of congeners [1]: did not demonstrate an antiviral activity

SMILES: O=c1ccn(CCC(O)CCO)c(=O)[nH]1 (racemic) [RS-1-(3,5-dihydroxypentyl)uracil]
- Antiviral activity of congeners [1]: did not demonstrate an antiviral activity

SMILES: O=c1[nH]cnc2c1ncn2C[C@H](O)CO [S-9-(2,3-dihydroxypropyl)hypoxanthine]
- Antiviral activity of congeners [1]: did not demonstrate an antiviral activity

SMILES: Nc1ncnc2c1ncn2C[C@@H](O)CO [(R)-DHPA]
- Antiviral activity of enantiomers and racemate ([1]; listed as R-enantiomeric form): not

SMILES: O=c1ccn(CC[C@H](O)CO)c(=O)[nH]1 [S-1-(3,4-dihydroxybutyl)-racil]
- Antiviral activity of congeners [1]: did not demonstrate an antiviral activity

SMILES: NCCn1cnc2c(N)ncnc21 [9-(2-aminoethyl)adenine]
- Antiviral activity of congeners [1]: did not demonstrate an antiviral activity

SMILES: Cc1c[nH]c(=O)n(C[C@H](O)CO)c1=O [S-3-(2,3-dihydroxypropyl)thymine]
- Antiviral activity of congeners [1]: did not demonstrate an antiviral activity

SMILES: Nc1ncnc2c1ncn2C[C@H](O)CO [(S)-DHPA, (S)-9-(2,3-dihydroxypropyl)adenine]
- Antiviral activity of enantiomers and racemate [1]: active
- Final number of surviving mice ([6]; 2 mg/mouse (about 133 mg/kg) i.p. at 1 h and 1, 2, 3, 4 days): 67%
- Increase in final number of surviving mice vs control ([6]; 2 mg/mouse i.p., repeated): significant increase
- Difference in number of survivors at 9 days vs control ([6]; 2 mg/mouse i.p., repeated, 9 days after infection): significant
- Protection ([6]; repeated doses of 0.08 mg/mouse (about 5.4 mg/kg)): did not confer protection
- Protection [6, 19]: slight protection
- Final number of surviving mice [6, 19]: 55%
- Survival in acute toxicity test (LD50 could not be determined) ([7]; doses up to 1000 mg/kg/day for 3 to 5 days): all mice survived (without any sign of illness)
- Acute toxicity ([7]; general statement): very low acute toxicity
- log reduction at 100 µg/mL ([8]; 24 h): ~4
- log reduction at 100 µg/mL ([8]; 48 h): ~4
- EC50 ([9]; HSF): 2 to 7 µg/mL (≈ 9.56 to 33.5 µM)
- EC50 ([9]; HeLa): > 200 µg/mL
- EC50 ([9]; PRK): 7 to 10 µg/mL (≈ 33.5 to 47.8 µM)
- EC50 ([10]; Skin fibroblast): 10 to 20 µg/mL (≈ 47.8 to 95.6 µM)
- EC50 ([10]; in Oryctolagus cuniculus): 10 to 20 µg/mL (≈ 47.8 to 95.6 µM)
- EC50 [11]: 4 to 40 µg/mL (≈ 19.1 to 191 µM)
- EC50 [12]: > 200 µg/mL
- Concentration dependence of inhibition of ara-A deamination ([2]; absorbance decrease at 265 nm): inhibited proportionally to the concentration of (S)-DHPA
- Inhibition of deamination of ara-A ([2]; adenosine deaminase extracted from calf intestinal mucosa): strongly inhibited
- EC50 [13]: > 200 µg/mL
- Virus yield [3, 16]: 3.6 log10 PFU/ml
- Virus yield [3, 17]: 4.9 log10 PFU/ml
- Virus yield [3, 18]: 5.4 log10 PFU/ml
- Potentiation of antiviral activity of ara-A ([3]; PRK cells, vaccinia virus): markedly potentiated the antiviral activity of ara-A
- EC50 ([14]; HSF): > 200 µg/mL
- EC50 ([14]; HeLa): > 200 µg/mL
- Stability in pure form [15]: practically unlimited
- Stability (thermic sterilization of neutral, weakly acid or weakly alkaline solutions possible) [15]: remarkable stability

SMILES: Nc1ncnc2c1ncn2C(CO)CO [2-(9-adeninyl)propane-1,3-diol]
- Antiviral activity of congeners [1]: did not demonstrate an antiviral activity

SMILES: Nc1ncnc2c1ncn2CC(O)CO (racemic) [(RS)-DHPA, (RS)-9-(2,3-dihydroxypropyl)adenine]
- Antiviral activity of enantiomers and racemate [1]: almost as effective as the (S)-enantiomer
- Antiviral activity of enantiomers and racemate ([1]; listed as RS-form): almost as effective as the S-form
- Stability in pure form [15]: practically unlimited
- Stability (thermic sterilization of neutral, weakly acid or weakly alkaline solutions possible) [15]: remarkable stability
